# Measured values taken from patent US10131652B2, “Pyrimidinyloxy benzene derivatives as herbicides” (E. I. DU PONT DE NEMOURS AND COMPANY, priority 2014, dated 2018).
# What was measured:
# Format in all cases: in vivo
# [1] = tested on: barnyardgrass (Echinochloa crus-galli); assay: Test B pre-/postemergence plant response
# Summary of the method: (§1)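 Visual injury rating, 0 (no effect) to 100 (complete control), vs untreated controls after ~10 d greenhouse. Pre: directed soil spray after planting in loam/sand. Post: plants 2–10 cm, 1–2 leaf stage. Compound in non-phytotoxic solvent plus surfactant.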
# corn (Zea mays) [2] = assay: Test B pre-/postemergence plant response
# Summary of the method: as §1
# [3] = tested on: pigweed (Amaranthus retroflexus); assay: Test B pre-/postemergence plant response
# Summary of the method: as §1
# [4] = tested on: giant foxtail (Setaria faberii); assay: Test B pre-/postemergence plant response
# Summary of the method: as §1
# [5] = tested on: wheat (Triticum aestivum); assay: Test B pre-/postemergence plant response
# Summary of the method: as §1
# [6] = tested on: barnyardgrass (Echinochloa crus-galli); assay: Test D pre-/postemergence plant response; conditions: Postemergence; for Barnyardgrass plant response rating: scale 0 to 100 (0 no effect, 100 complete control); for Plant response rating, Barnyardgrass: scale 0 to 100, 0 no effect, 100 complete control
# Summary of the method: (§2)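 Seeds sown in loam–sand blend got preemergence sprays of test chemicals in a non-phytotoxic solvent with surfactant; postemergence sprays went on plants at 1- to 4-leaf stage (2 to 18 cm) in peat/vermiculite medium. After 13 to 15 days in greenhouse, visual injury versus controls scored 0 (no effect) to 100 (complete control).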
# [7] = tested on: lambsquarters (Chenopodium album); assay: Test D pre-/postemergence plant response; conditions: Postemergence; for Lambsquarters plant response rating: 31 g ai/ha, scale 0 to 100 (0 no effect, 100 complete control); for Plant response rating, Lambsquarters: scale 0 to 100, 0 no effect, 100 complete control
# Summary of the method: as §2
# [8] = tested on: waterhemp (common waterhemp, Amaranthus rudis); assay: Test D pre-/postemergence plant response; conditions: Postemergence; for Waterhemp plant response rating: 31 g ai/ha, scale 0 to 100 (0 no effect, 100 complete control); for Plant response rating, Waterhemp: scale 0 to 100, 0 no effect, 100 complete control
# Summary of the method: as §2
# corn (Zea mays) [9] = assay: Test D pre-/postemergence plant response; conditions: Postemergence; for Corn plant response rating: scale 0 to 100 (0 no effect, 100 complete control); for Plant response rating, Corn: scale 0 to 100, 0 no effect, 100 complete control
# Summary of the method: as §2
# [10] = tested on: galium (catchweed bedstraw, Galium aparine); assay: Test D pre-/postemergence plant response; conditions: Postemergence; for Galium plant response rating: 31 g ai/ha, scale 0 to 100 (0 no effect, 100 complete control); for Plant response rating, Galium: scale 0 to 100, 0 no effect, 100 complete control
# Summary of the method: as §2
# [11] = tested on: blackgrass (Alopecurus myosuroides); assay: Test D pre-/postemergence plant response; conditions: Postemergence; for Blackgrass plant response rating: scale 0 to 100 (0 no effect, 100 complete control); for Plant response rating, Blackgrass: scale 0 to 100, 0 no effect, 100 complete control
# Summary of the method: as §2
# [12] = tested on: morningglory (Ipomoea coccinea); assay: Test D pre-/postemergence plant response; conditions: Postemergence; for Morningglory plant response rating: 31 g ai/ha, scale 0 to 100 (0 no effect, 100 complete control); for Plant response rating, Morningglory: scale 0 to 100, 0 no effect, 100 complete control
# Summary of the method: as §2
# [13] = tested on: ragweed (common ragweed, Ambrosia elatior); assay: Test D pre-/postemergence plant response; conditions: Postemergence; for Ragweed plant response rating: 31 g ai/ha, scale 0 to 100 (0 no effect, 100 complete control); for Plant response rating, Ragweed: scale 0 to 100, 0 no effect, 100 complete control
# Summary of the method: as §2
# [14] = tested on: pigweed (Amaranthus retroflexus); assay: Test D pre-/postemergence plant response; conditions: Postemergence; for Pigweed plant response rating: 31 g ai/ha, scale 0 to 100 (0 no effect, 100 complete control); for Plant response rating, Pigweed: scale 0 to 100, 0 no effect, 100 complete control
# Summary of the method: as §2
# [15] = tested on: giant foxtail (Setaria faberii); assay: Test D pre-/postemergence plant response; conditions: Postemergence; for Foxtail, Giant plant response rating: scale 0 to 100 (0 no effect, 100 complete control); for Plant response rating, Foxtail, Giant: scale 0 to 100, 0 no effect, 100 complete control
# Summary of the method: as §2
# [16] = tested on: Italian ryegrass (Lolium multiflorum); assay: Test D pre-/postemergence plant response; conditions: Postemergence; for Ryegrass, Italian plant response rating: 31 g ai/ha, scale 0 to 100 (0 no effect, 100 complete control); for Plant response rating, Ryegrass, Italian: scale 0 to 100, 0 no effect, 100 complete control
# Summary of the method: as §2
# [17] = 31 g ai/ha, Preemergence, 0 to 100 scale where 0 is no effect and 100 is complete control
# [18] = 125 g ai/ha, postemergence, 0 to 100 scale, 0 no effect, 100 complete control
# [19] = Postemergence, 31 g ai/ha, 0 to 100 scale (0 no effect, 100 complete control)
# [20] = Preemergence, 125 g ai/ha, 0 to 100 scale (0 no effect, 100 complete control)
# [21] = 31 g ai/ha, Postemergence, 0 to 100 scale, 0 no effect, 100 complete control
compound,measurement,setting,value
CC(F)(F)c1cc(-c2ccccc2Oc2ncc(Br)cn2)no1 [Compound 149],"Plant response rating, Barnyardgrass",[1]; [17],10
same,"Plant response rating, Barnyardgrass",[1]; [18],40
same,"Plant response rating, Barnyardgrass",[1]; [19],10
same,Barnyardgrass plant response rating,[1]; [20],70
same,"Plant response rating, Corn",corn (Zea mays) [2]; [18],20
same,"Plant response rating, Corn",corn (Zea mays) [2]; [19],10
same,"Plant response rating, Pigweed",[3]; [17],80
same,"Plant response rating, Pigweed",[3]; [18],100
same,"Plant response rating, Pigweed",[3]; [19],90
same,Pigweed plant response rating,[3]; [20],100
same,"Plant response rating, Foxtail, Giant",[4]; [17],70
same,"Plant response rating, Foxtail, Giant",[4]; [18],60
same,"Plant response rating, Foxtail, Giant",[4]; [19],10
same,"Foxtail, Giant plant response rating",[4]; [20],100
same,"Plant response rating, Wheat",[5]; [18],10
same,"Plant response rating, Wheat",[5]; [19],0
same,Barnyardgrass plant response rating,[6]; 16 g ai/ha,5
same,Barnyardgrass plant response rating,[6]; 31 g ai/ha,5
same,"Plant response rating, Barnyardgrass",[6]; 62 g ai/ha,5
same,"Plant response rating, Barnyardgrass",[6]; 125 g ai/ha,10
same,Lambsquarters plant response rating,[7],70
same,"Plant response rating, Lambsquarters",[7]; 62 g ai/ha,80
same,"Plant response rating, Lambsquarters",[7]; 125 g ai/ha,85
same,Waterhemp plant response rating,[8],80
same,"Plant response rating, Waterhemp",[8]; 62 g ai/ha,95
same,"Plant response rating, Waterhemp",[8]; 125 g ai/ha,100
same,Corn plant response rating,corn (Zea mays) [9]; 16 g ai/ha,0
same,Corn plant response rating,corn (Zea mays) [9]; 31 g ai/ha,5
same,"Plant response rating, Corn",corn (Zea mays) [9]; 62 g ai/ha,5
same,"Plant response rating, Corn",corn (Zea mays) [9]; 125 g ai/ha,5
same,Galium plant response rating,[10],60
same,"Plant response rating, Galium",[10]; 62 g ai/ha,70
same,"Plant response rating, Galium",[10]; 125 g ai/ha,95
same,Blackgrass plant response rating,[11]; 16 g ai/ha,0
same,Blackgrass plant response rating,[11]; 31 g ai/ha,0
same,"Plant response rating, Blackgrass",[11]; 62 g ai/ha,0
same,"Plant response rating, Blackgrass",[11]; 125 g ai/ha,30
same,Morningglory plant response rating,[12],60
same,"Plant response rating, Morningglory",[12]; 62 g ai/ha,70
same,"Plant response rating, Morningglory",[12]; 125 g ai/ha,80
same,Ragweed plant response rating,[13],30
same,"Plant response rating, Ragweed",[13]; 62 g ai/ha,30
same,"Plant response rating, Ragweed",[13]; 125 g ai/ha,45
same,Pigweed plant response rating,[14],85
same,"Plant response rating, Pigweed",[14]; 62 g ai/ha,95
same,"Plant response rating, Pigweed",[14]; 125 g ai/ha,90
same,"Foxtail, Giant plant response rating",[15]; 16 g ai/ha,5
same,"Foxtail, Giant plant response rating",[15]; 31 g ai/ha,10
same,"Plant response rating, Foxtail, Giant",[15]; 62 g ai/ha,10
same,"Plant response rating, Foxtail, Giant",[15]; 125 g ai/ha,30
same,"Ryegrass, Italian plant response rating",[16],0
same,"Plant response rating, Ryegrass, Italian",[16]; 62 g ai/ha,0
same,"Plant response rating, Ryegrass, Italian",[16]; 125 g ai/ha,0
Fc1cccc(Oc2ncc(Cl)cn2)c1-c1cc(C2CC2)on1 [Compound 130],"Plant response rating, Barnyardgrass",[1]; [21],40
same,"Plant response rating, Barnyardgrass",[1]; [17],50
same,"Plant response rating, Barnyardgrass",[1]; [18],100
same,Barnyardgrass plant response rating,[1]; [20],90
same,"Plant response rating, Corn",corn (Zea mays) [2]; [21],20
same,"Plant response rating, Corn",corn (Zea mays) [2]; [18],40
same,"Plant response rating, Pigweed",[3]; [17],100
same,"Plant response rating, Pigweed",[3]; [18],100
same,Pigweed plant response rating,[3]; [20],100
same,"Plant response rating, Foxtail, Giant",[4]; [21],50
same,"Plant response rating, Foxtail, Giant",[4]; [17],90
same,"Plant response rating, Foxtail, Giant",[4]; [18],80
same,"Foxtail, Giant plant response rating",[4]; [20],100
same,"Plant response rating, Wheat",[5]; [18],40
same,Barnyardgrass plant response rating,[6]; 16 g ai/ha,10
same,Barnyardgrass plant response rating,[6]; 31 g ai/ha,10
same,"Plant response rating, Barnyardgrass",[6]; 62 g ai/ha,10
same,"Plant response rating, Barnyardgrass",[6]; 125 g ai/ha,25
same,Lambsquarters plant response rating,[7],100
same,"Plant response rating, Lambsquarters",[7]; 62 g ai/ha,100
same,"Plant response rating, Lambsquarters",[7]; 125 g ai/ha,100
same,Waterhemp plant response rating,[8],85
same,"Plant response rating, Waterhemp",[8]; 62 g ai/ha,98
same,"Plant response rating, Waterhemp",[8]; 125 g ai/ha,98
same,Corn plant response rating,corn (Zea mays) [9]; 16 g ai/ha,10
same,Corn plant response rating,corn (Zea mays) [9]; 31 g ai/ha,25
same,"Plant response rating, Corn",corn (Zea mays) [9]; 62 g ai/ha,10
same,"Plant response rating, Corn",corn (Zea mays) [9]; 125 g ai/ha,10
same,Galium plant response rating,[10],90
same,"Plant response rating, Galium",[10]; 62 g ai/ha,95
same,"Plant response rating, Galium",[10]; 125 g ai/ha,100
same,Blackgrass plant response rating,[11]; 16 g ai/ha,0
same,Blackgrass plant response rating,[11]; 31 g ai/ha,5
same,"Plant response rating, Blackgrass",[11]; 62 g ai/ha,20
same,"Plant response rating, Blackgrass",[11]; 125 g ai/ha,30
same,Morningglory plant response rating,[12],80
same,"Plant response rating, Morningglory",[12]; 62 g ai/ha,85
same,"Plant response rating, Morningglory",[12]; 125 g ai/ha,85
same,Ragweed plant response rating,[13],60
same,"Plant response rating, Ragweed",[13]; 62 g ai/ha,75
same,"Plant response rating, Ragweed",[13]; 125 g ai/ha,40
same,Pigweed plant response rating,[14],95
same,"Plant response rating, Pigweed",[14]; 62 g ai/ha,98
same,"Plant response rating, Pigweed",[14]; 125 g ai/ha,98
same,"Foxtail, Giant plant response rating",[15]; 16 g ai/ha,5
same,"Foxtail, Giant plant response rating",[15]; 31 g ai/ha,5
same,"Plant response rating, Foxtail, Giant",[15]; 62 g ai/ha,10
same,"Plant response rating, Foxtail, Giant",[15]; 125 g ai/ha,25
same,"Ryegrass, Italian plant response rating",[16],5
same,"Plant response rating, Ryegrass, Italian",[16]; 62 g ai/ha,10
same,"Plant response rating, Ryegrass, Italian",[16]; 125 g ai/ha,15
